Literature values as cited in patent US20040087576A1, “Antimnemonic therapy for hypermemory syndromes” (priority 2002, published 2004).

Tests used:
[1] = system: reconsolidation of retrieved memories; settings: in vivo
conditioned fear = settings: in vivo
rat fear-conditioning = settings: rats
[2] = patients; doses of 100-500 mg/day
PTSD symptoms = settings: patients; 10-day course, 40 mg four times daily, versus placebo; assessed 3 months after the trauma
emotion-related memory = settings: rats; post-training administration

SMILES: NC(CCCP(=O)(O)O)C(=O)O (stereo not drawn) [AP5]
- amnesia by blocking the reconsolidation of retrieved memories [1]: induce amnesia by blocking the reconsolidation of retrieved memories

SMILES: N[C@@H]1CONC1=O [D-cycloserine]
- extinction of conditioned fear (conditioned fear): facilitate the extinction of conditioned fear

SMILES: C[C@]12N[C@H](Cc3ccccc31)c1ccccc12 [MK-801]
- amnesia by blocking the reconsolidation of retrieved memories [1]: induce amnesia by blocking the reconsolidation of retrieved memories

SMILES: COc1ccc(C[C@H]2NC[C@H](O)[C@H]2OC(C)=O)cc1 [anisomycin]
- reconsolidation of reactivated memories (rat fear-conditioning; cue 1 or 14 days after conditioning, drug immediately after cue, tested 24 hours later): blocked reconsolidation of reactivated memories
- fear response to the cue (rat fear-conditioning; cue presented a further twenty four hours after treatment): did not display the fear response

SMILES: CC12CC3CC(C)(C1)CC(N)(C3)C2 [memantine]
- tolerability [2]: well tolerated

SMILES: CC(C)NCC(O)COc1cccc2ccccc12 (stereo not drawn) [propranolol]
- amnesia by blocking the reconsolidation of retrieved memories [1]: induce amnesia by blocking the reconsolidation of retrieved memories
- ratings of PTSD symptoms (PTSD symptoms): slightly, but significantly, lower
- consolidation of emotion-related memory (emotion-related memory): blocked the consolidation of emotion-related memory
